A short description of data set [1]: Drug concentration in C57BL/6J mouse brain at 5 mg/kg,ip measured at 0.5 hrs by LC-MS analysis. The format is ADME, organism-based. The note with it: read-out: Ct.
Data set [2] is described as follows: Ratio of drug concentration in brain to plasma in C57BL/6J mouse at 5 mg/kg,ip measured at 2 hrs by LC-MS analysis. It counts as ADME, organism-based. Conditions: read-out: BPR; call rule not given here.
Data set [3] in a line: Drug concentration in C57BL/6J mouse brain at 5 mg/kg,ip measured at 2 hrs by LC-MS analysis. It counts as ADME, organism-based. Conditions: read-out: Ct.
Data set [4] can be described thus: Drug concentration in C57BL/6J mouse plasma at 5 mg/kg,ip measured at 0.5 hrs by LC-MS analysis. It counts as ADME, organism-based. Conditions: in vivo.
A short description of data set [5]: Ratio of drug concentration in brain to plasma in C57BL/6J mouse at 5 mg/kg,ip measured at 0.5 hrs by LC-MS analysis. The note with it: read-out: BPR. The format is ADME, organism-based.
Data set [6] in a line: Drug concentration in C57BL/6J mouse plasma at 5 mg/kg,ip measured at 2 hrs by LC-MS analysis. It counts as ADME, organism-based. The note with it: in vivo.
Data set [7] addresses T1, D(2) dopamine receptor (Homo sapiens, UniProt P14416). The experiment in a line: Displacement of [3H]N-methylspiperone from Dopamine D2 receptor (unknown origin) expressed in HEK293T cell membrane incubated for 2 hrs by radioligand competitive binding based MicroBeta TriLux reader method. It counts as cell membranes. A general note: Loss of bound radioactivity is the signal in a displacement assay; it reports binding, not function.

Data set [8] deals with T1, D(2) dopamine receptor. The experiment in a line: Partial agonist activity at Dopamine D2 receptor (unknown origin) expressed in HEK293T coexpressing beta-arrestin-2 assessed as increase in cAMP accumulation incubated for 5 mins by beta-arrestin recruitment based BRET assay. It counts as functional, cell-based. A general note: Changes in cAMP serve as a functional read-out for many G protein-coupled receptors.

For data set [9], the target named is T1, D(2) dopamine receptor. Description: Partial agonist activity at Dopamine D2 receptor (unknown origin) expressed in HEK293T co-expressing G-alphai assessed as increase in cAMP accumulation incubated for 5 mins by BRET assay. It counts as functional, cell-based.

T1 sequence (P14416 whole entry): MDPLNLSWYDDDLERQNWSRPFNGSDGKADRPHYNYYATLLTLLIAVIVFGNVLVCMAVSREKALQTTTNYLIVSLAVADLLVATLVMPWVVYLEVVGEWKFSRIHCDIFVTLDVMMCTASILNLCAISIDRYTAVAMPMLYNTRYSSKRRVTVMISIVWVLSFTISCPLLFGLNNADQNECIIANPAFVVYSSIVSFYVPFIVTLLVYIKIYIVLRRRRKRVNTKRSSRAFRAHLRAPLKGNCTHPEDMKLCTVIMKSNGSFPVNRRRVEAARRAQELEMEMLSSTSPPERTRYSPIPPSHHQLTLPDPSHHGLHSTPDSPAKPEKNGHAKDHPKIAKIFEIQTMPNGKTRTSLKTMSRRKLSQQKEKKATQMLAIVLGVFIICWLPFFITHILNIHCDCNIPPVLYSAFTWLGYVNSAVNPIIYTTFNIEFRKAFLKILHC

In the case of `COc1cccc2cc(CNCCCCOc3ccc4ccc(=O)[nH]c4c3)oc12`, the concentration at 0.5 h in [1] is 32.1 ng/mL. In [2], the Kp at 2 h was found to be 0.434. The concentration at 2 h in data set [3] amounted to 3.02 ng/mL. Also, the Cp in [4] turned out to be 272 ng/mL; in data set [6], 6.95 ng/mL. The Kp at 0.5 h in [5] is 0.118.
Take `COc1cccc2c3c(oc12)CN(CCCCOc1ccc2ccc(=O)n(C)c2c1)CC3`: the Ki on D(2) dopamine receptor [7] (read-out: Ki) turned out to be 2280 nM.
Consider `COc1cccc2c3c(oc12)CN(C/C=C/COc1ccc2ccc(=O)[nH]c2c1)CC3`, for which, at D(2) dopamine receptor [8] (read-out: EC50), the EC50 came to 23 nM.
For `CCOc1cccc2cc(CNCC[C@H]3CC[C@H](NC(=O)N(C)C)CC3)oc12`, the EC50 came out at 3.81 nM at D(2) dopamine receptor [8] (read-out: EC50) and 14.7 nM on D(2) dopamine receptor [9] (read-out: EC50). Besides, the Ki at D(2) dopamine receptor [7] (read-out: Ki) was determined as 99.3 nM.
Regarding `COc1cccc2c3c(oc12)CN(CCCOc1ccc2ccc(=O)[nH]c2c1)CC3`, the EC50 was 26.6 nM on D(2) dopamine receptor [8] (read-out: EC50) and 0.31 nM at D(2) dopamine receptor [9] (read-out: EC50).
`CC(C)Oc1cccc2c3c(oc12)CN(CCCCOc1ccc2ccc(=O)[nH]c2c1)CC3`: at D(2) dopamine receptor [9] (hek293t), the EC50 result is on record as “Not Active”.
For `CCOc1cccc2cc(CNCCCCOc3ccc4c(c3)NC(=O)CC4)oc12`, the concentration at 0.5 h in data set [1] is 168 ng/mL. The Kp at 2 h in data set [2] is 0.113. In addition, in [3], the concentration at 2 h worked out at 6.05 ng/mL. Also, the Kp at 0.5 h in data set [5] is 0.142. For the same compound, in [6], the Cp was 53.8 ng/mL.
As for `COc1cccc2cc(CNCCCCOc3ccc4c(c3)NC(=O)CC4)oc12`, the EC50 was determined as 2.01 nM on D(2) dopamine receptor [8] (read-out: EC50) and 5.16 nM at D(2) dopamine receptor [9] (read-out: EC50). In addition, the concentration at 0.5 h in [1] turned out to be 60.7 ng/mL. For the same compound, the results for the Ki at D(2) dopamine receptor [7] (read-out: Ki) and on D(2) dopamine receptor [7] (read-out: pKi (converted)) were 33.3 nM and 33.9 nM, respectively. The Kp at 2 h in data set [2] came to 0.384. The concentration at 2 h in data set [3] is 4.1 ng/mL. The results for the Cp in data set [4] and in data set [6] were 331 ng/mL and 10.7 ng/mL, respectively. Also, the Kp at 0.5 h in data set [5] was 0.183.
On to `CCOc1cccc2cc(CNCCCOc3ccc4c(c3)NC(=O)CC4)oc12`, for which the EC50 on D(2) dopamine receptor [8] (read-out: EC50) is 12.2 nM; at D(2) dopamine receptor [9] (read-out: EC50) it was 30.4 nM. Besides, the Ki at D(2) dopamine receptor [7] (read-out: Ki) was found to be 109 nM.
Turning to `COc1cccc2c3c(oc12)CN(CCCCOc1ccc2c(c1)NC(=O)C2)CC3`, the values for the EC50 on D(2) dopamine receptor [8] (read-out: EC50), on D(2) dopamine receptor [8] (read-out: pEC50 (converted)) and on D(2) dopamine receptor [9] (read-out: EC50) were 1340 nM, 1410 nM and 869 nM, respectively. In addition, the Ki on D(2) dopamine receptor [7] (read-out: Ki) is 3190 nM; at D(2) dopamine receptor [7] (read-out: pKi (converted)), 3240 nM.
Turning to `O=C1CCc2ccc(OCCCCNCc3cc4ccccc4o3)cc2N1`, the EC50 is 7.29 nM at D(2) dopamine receptor [8] (read-out: EC50) and 53.7 nM on D(2) dopamine receptor [9] (read-out: EC50). Moreover, on D(2) dopamine receptor [7] (read-out: Ki), the Ki turned out to be 582 nM.

Values taken from ChEMBL document CHEMBL5380874, “Transformation of a Dopamine D2 Receptor Agonist to Partial Agonists as Novel Antipsychotic Agents” (J Med Chem, 2023).
